Laboratory results published in patent publication US6767909B2, “Compounds useful for treatment or prevention of disease mediated by alpha-2B-adrenoceptor” (Oy Juvantia Pharma Ltd., priority 2001, dated 2004).

Assays:
[1] = target: T1, human alpha-2A-adrenoceptor (Homo sapiens, UniProt P08913); experiment: Human alpha-2-adrenoceptor binding affinity, 3H-rauwolscine competition binding; details: Mean ± SEM, membranes of Shionogi S115 cells transfected with human α2A
T1 construct: expressed in transfected cells
T1 sequence (P08913 1-465): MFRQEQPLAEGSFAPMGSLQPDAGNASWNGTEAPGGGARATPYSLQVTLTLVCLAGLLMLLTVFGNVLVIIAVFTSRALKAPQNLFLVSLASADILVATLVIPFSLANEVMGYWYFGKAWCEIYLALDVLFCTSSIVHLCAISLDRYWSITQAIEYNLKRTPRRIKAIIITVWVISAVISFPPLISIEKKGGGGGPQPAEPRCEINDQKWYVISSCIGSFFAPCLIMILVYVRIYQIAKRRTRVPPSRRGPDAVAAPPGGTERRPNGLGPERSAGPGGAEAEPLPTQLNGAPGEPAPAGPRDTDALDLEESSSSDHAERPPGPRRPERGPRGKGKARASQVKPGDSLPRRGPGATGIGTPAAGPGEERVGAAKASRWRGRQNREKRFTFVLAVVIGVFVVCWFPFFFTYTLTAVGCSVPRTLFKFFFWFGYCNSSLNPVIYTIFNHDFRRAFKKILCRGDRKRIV
Method: (§1) Results expressed in the form of “>” means that no numerical values for Ki's could be established due to lack of displacement or due to incomplete competition curves.
(§2) Human Alpha-2-adrenoceptor Binding Affinity
(§3) After 30 min at room temperature, incubations were terminated by rapid vacuum filtration through GF/B glass fiber filter and three 5 ml washes with ice-cold incubation buffer. The filters were then dried, impregnated with scintillate and their radioactivity was measured by scintillation counting. The analysis of the experiments was carried out by non-linear least square curve fitting. Experimentally determined IC50 values were converted to Ki's by making use of the Cheng-Prusoff equation (Cheng and Prusoff, 1973). Experiments were repeated a minimum of three times. to the incubation mixture. After an additional 60 min at room temperature, the incubation was terminated by rapid vacuum filtration through glass fibre filter. Filters were washed three times with 5 ml ice cold wash buffer (20 mM Tris, 5 mM MgCl2, 1 mM EDTA pH 7.4 at room temperature), dried and counted for radioactivity in a scintiallation counter. Analysis of experiments was carried out by non-linear least square fitting. Results are based on a minimum of three experiments.

[2] = target: T2, human alpha-2B-adrenoceptor (Homo sapiens, UniProt P18089); experiment: as above; details: Mean ± SEM, membranes of Shionogi S115 cells transfected with human α2B
T2 construct: expressed in transfected cells
T2 sequence (P18089 1-450): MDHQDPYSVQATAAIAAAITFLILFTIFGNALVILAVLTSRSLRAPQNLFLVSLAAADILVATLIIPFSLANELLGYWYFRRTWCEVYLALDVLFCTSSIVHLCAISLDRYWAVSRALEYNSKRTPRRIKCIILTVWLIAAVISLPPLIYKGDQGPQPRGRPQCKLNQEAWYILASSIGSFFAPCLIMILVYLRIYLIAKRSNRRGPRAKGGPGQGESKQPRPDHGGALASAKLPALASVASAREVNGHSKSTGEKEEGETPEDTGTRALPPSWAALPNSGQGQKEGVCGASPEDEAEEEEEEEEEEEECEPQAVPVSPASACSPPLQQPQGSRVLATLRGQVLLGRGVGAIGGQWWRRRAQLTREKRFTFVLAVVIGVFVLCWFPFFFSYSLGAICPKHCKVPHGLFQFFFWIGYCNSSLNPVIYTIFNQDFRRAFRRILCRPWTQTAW
Method: as §1, §2
as §3, with “Experimentally determined IC50 values were converted to Ki's by making use of the Cheng-Prusoff equation (Cheng and Prusoff, 1973).” left out

[3] = target: T3, human alpha-2C-adrenoceptor (Homo sapiens, UniProt P18825); experiment: as above; details: Mean ± SEM, membranes of Shionogi S115 cells transfected with human α2C
T3 construct: expressed in transfected cells
T3 sequence (P18825 1-462): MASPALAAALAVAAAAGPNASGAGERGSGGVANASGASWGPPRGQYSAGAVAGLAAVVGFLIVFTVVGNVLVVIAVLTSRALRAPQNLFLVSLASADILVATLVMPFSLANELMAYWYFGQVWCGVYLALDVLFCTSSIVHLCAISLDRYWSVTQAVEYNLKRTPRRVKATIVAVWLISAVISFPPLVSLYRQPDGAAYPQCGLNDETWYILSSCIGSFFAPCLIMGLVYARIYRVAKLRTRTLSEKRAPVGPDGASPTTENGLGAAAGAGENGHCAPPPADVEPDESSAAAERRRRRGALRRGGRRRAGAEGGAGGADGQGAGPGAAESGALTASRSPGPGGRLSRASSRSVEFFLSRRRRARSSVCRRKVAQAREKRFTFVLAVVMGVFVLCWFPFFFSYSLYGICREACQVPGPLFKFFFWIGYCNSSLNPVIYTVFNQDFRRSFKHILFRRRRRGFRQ
Method: as §1, §2
as §3, with “Experimentally determined IC50 values were converted to Ki's by making use of the Cheng-Prusoff equation (Cheng and Prusoff, 1973).” left out

[4] = target: T1, human alpha-2A-adrenoceptor; experiment: Antagonist activity: inhibition of epinephrine-stimulated 35S-GTPγS binding; format: biochemical; details: Mean ± SEM; CHO cell membranes, human α2A; 5 μM epinephrine; read-out: KB alpha-2A antagonist effect
Method: (§4) Antagonist Activity on Human Alpha-2-adrenoceptor Subtypes
Membranes (2-6 μg of protein per sample) and 12 concentrations of test compound were preincubated for 30 min with a fixed concentration fo epinephrine (5 μM for α2A, 15 μM for α2B, 5 μM for α2C) in 50 mM Tris, 5 mM MgCl2, 150 mM NaCl, 1 mM DTT, 1 mM EDTA, 10 μM GDP, 30 μM ascorbic acid, pH 7.4 at room temperature. Binding of radiolabel was started by the addition of trace amounts of ^35S-GTPγS (0.08-0.15 nM, specific activity 1250 Ci/mmol)
as §3

[5] = target: T2, human alpha-2B-adrenoceptor; experiment: as above; format: biochemical; details: Mean ± SEM; CHO cell membranes, human α2B; 15 μM epinephrine; read-out: KB alpha-2B antagonist effect
Method: as §4
as §3, with “Experimentally determined IC50 values were converted to Ki's by making use of the Cheng-Prusoff equation (Cheng and Prusoff, 1973).” left out

[6] = target: T3, human alpha-2C-adrenoceptor; experiment: as above; format: biochemical; details: Mean ± SEM; CHO cell membranes, human α2C; 5 μM epinephrine; read-out: KB alpha-2C antagonist effect
Method: as §4
as §3, with “Experimentally determined IC50 values were converted to Ki's by making use of the Cheng-Prusoff equation (Cheng and Prusoff, 1973).” left out

Row | Ki [1] [µM] | Ki [2] [µM] | Ki [3] [µM] | Kb [4] [µM] | Kb [5] [µM] | Kb [6] [µM] | SMILES
1 | 2 ± 0.4 |  | > 10 | 5.4 ± 1.4 |  | 6.3 ± 1.4 | Cc1cc(C)nc(NS(=O)(=O)c2ccc(NCc3c(Cl)cccc3Cl)cc2)n1 [Compound C, 4-(2,6Dichlorobenzylamino)-N-(4,6-dimethylpyrimidin-2-yl)-benzenesulfonamide]
2 | > 10 | 0.44 ± 0.07 | > 10 |  |  |  | Cc1cc(C)nc(NS(=O)(=O)c2ccc(NCc3ccc4ccccc4c3)cc2)n1 [Compound D, N-(4,6-Dimethylpyrimidin-2-yl)-4-[(naphthalen-2-ylmethyl)-amino]-benzenesulfonamide]
3 | > 4.3 | 0.043 ± 0.007 | > 10 | 8.7 ± 1.1 | 0.24 ± 0.06 | 12 ± 2 | CCn1cc(CNc2ccc(S(=O)(=O)Nc3nc(C)cc(C)n3)cc2)c2ccccc21 [Compound F, N-(4,6-Dimethylpyrimidin-2-yl)-4-[(1-ethyl-1H-indol-3-ylmethyl)-amino]-benzenesulfonamide]
4 | 2.2 ± 0.6 | 0.032 ± 0.005 | > 10 | 3.2 ± 0.5 | 0.086 ± 0.064 | 4.7 ± 1.8 | COc1ccccc1CCNc1ccc(S(=O)(=O)Nc2nc(C)cc(C)n2)cc1 [Compound G, N-(4,6-Dimethylpyrimidin-2-yl)-4-[2-(2-methoxyphenyl)-ethylamino]-benzenesulfonamide]

More lines, now with the values behind:

Row | SMILES | Ki [1] [µM] | Ki [2] [µM] | Ki [3] [µM] | Kb [4] [µM] | Kb [5] [µM] | Kb [6] [µM]
5 | Cc1cc(C)nc(NS(=O)(=O)c2ccc(NCc3nc4ccccc4n3CC(C)C)cc2)n1 [Compound A, N-(4,6-Dimethylpyrimidin-2-yl)-4-[(1-isobutyl-1H-benzimidazol-2-ylmethyl)-amino]-benzenesulfonamide] | > 13 | 0.16 ± 0.02 | > 30 |  |  | 
6 | Cc1cc(C)nc(NS(=O)(=O)c2ccc(NCc3ccccc3C)cc2)n1 [Compound B, N-(4,6-Dimethylpyrimidin-2-yl)-4-(2-methylbenzylamino)-benzenesulfonamide] | > 4.5 | 0.034 ± 0.002 | > 10 | 14.5 ± 3.6 | 0.075 ± 0.009 | 5.7 ± 0.7
7 | COc1cccc(CNc2ccc(S(=O)(=O)Nc3nc(C)cc(C)n3)cc2)c1 [Compound E, N-(4,6-Dimethylpyrimidin-2yl-)4(3-methoxybenzylamino)-benzenesulfonamide] | > 5.1 | 0.02 ± 0.004 | > 10 | 7.9 ± 3.1 | 0.029 ± 0.005 | 7.3 ± 1.1
8 | Cc1cc(C)nc(NS(=O)(=O)c2ccc(NC(c3ccccc3)c3ccccc3)cc2)n1 [Compound H, 4-(Benzhydrylamino)-N-(4,6-dimethylpyrimidin-2-yl)-benzenesulfonamide] | > 30 | 8 ± 0.5 | > 30 |  |  | 
